Data published in US11083717B2, “Compositions and methods for drug sensitization of parasites” (The Texas A&M University System, priority 2015, dated 2021).
Converted amounts (≈) assume the structure as drawn. Where two headings read alike, the source gives them in different places.

Key:
[1] = tested on: Cryptosporidium parvum (CP); test: Cell culture model of Cryptosporidium parvum infection in HCT-8 cells, real-time qRT-PCR; type: cell-based; settings: Cryptosporidium parvum; for MIC50: 44 h
Description: Fresh oocysts of CP (Iowa strain) were purchased from Bunch Grass Farm (Deary, Id.). Oocysts were further purified by a Percoll-based gradient centrifugation method and surface sterilized with 10% bleach for 7 min on ice, followed by washes with phosphate-buffered saline (PBS). An ileocecal colorectal adenocarcinoma cell line (HCT-8, ATCC #CCL-244) was used to host the growth of CP in vitro. One day before the inoculation, HCT-8 cells were seeded in 96-well plates (2.5×10^4/well) containing RPMI 1640 medium supplied with 10% fetal bovine serum (200 μL medium/well in all experiments) and allowed to grow overnight at 37° C. under 5% CO2 atmosphere until they reached ˜90% confluence. For drug testing, host cells were infected with 1.5×10^4 oocysts per well (ratio ˜1:3). After inoculation, parasite oocysts were allowed to undergo excystation and invasion into host cells for 3 h at 37° C. Free parasites and oocyst walls in the medium were removed from the plates by an exchange of the culture medium. Drugs at specified concentrations were added into the culture at this time point (immediately after the medium exchange). Parasite-infected cells were then incubated at 37° C. for additional 41 h (total 44 h infection time). At least two independent experiments were conducted for every experimental condition, each including two replicates drugs and eight replicates for negative controls.
Plates containing HCT-8 cells infected with CP for 44 h were first centrifuged for 10 min at 1000×g to ensure that free merozoites in the medium were firmly settled on the bottom of the wells. Medium was removed, followed by two gentle washes with PBS. For extracting total RNA, 200 μL of ice-cold Bio-Rad iScript qRT-PCR sample preparation reagent (lysis buffer) (Bio-Rad Laboratories, Hercules, Calif.) was added into each well. Plates were sealed with heat sealing films and subjected to vortex for 20 min. Plates were then incubated at 75° C. for 15 min, followed by centrifugation (5 min, 2000×g) to settle down cell debris. Supernatants were used immediately in subsequent qRT-PCR reactions or the plates were stored at −80° C. until use.
The levels of 18S rRNA transcripts from CP and host cells (referred to as Cp18S and Hs18S) were detected by real-time qRT-PCR method using qScrip™ one-step SYBR green qRT-PCR kit (Quanta Biosciences, Gaithersburg, Md.). Cell lysates prepared as described above were diluted by 100 and 2000 folds for detecting Cp18S and Hs18S transcripts, respectively. Reactions were performed in hard-shell 384-well skirted PCR plates (Bio-Rad Laboratories, Hercules, Calif.) (10 μL/well) containing 3 μL diluted cell lysate, 5 μL one-step SYBR green master mix, 0.2 μl RT master mix and the following primers: Cp18S-1011F and Cp18S-1185R primer pair for Cp18S rRNA, and Hs18S-1F and Hs18S-1R primer pair for Hs18S rRNA. Hs18S levels were used as controls and for normalization.
Real-time qRT-PCR reactions were performed by a Bio-Rad CFX384 Touch Real-Time PCR Detection System. The reactions started with synthesizing cDNA at 50° C. for 20 min, followed by 5 min at 95° C. to denature RNA-cDNA hybrids and deactivate reverse transcriptase, and 40 two-temperature thermal cycles of PCR amplification at 95° C., 10 sec and 58° C., 30 sec. At the end of PCR amplification, melting curve analysis was performed between 65° C. to 95° C. At least 2 technical replicates were included in qRT-PCR reactions for each sample.
The % inhibition (% inh @ (μM)) was calculated using a standard curve.

S. cerevisiae = test: in vitro; settings: Saccharomyces cerevisiae
human fibroblast = test: in vitro
[2] = HCT-8, @10 uM, read-out: % inh @
[3] = CP in HCT-8 cells, 44 h infection, 50% reduction of parasite growth vs control, NA: not active, read-out: MIC50

| SMILES | concentrations at which not toxic, S. cerevisiae cytotoxicity testing (S. cerevisiae) [µM] | concentrations at which not toxic, human fibroblast cytotoxicity testing (human fibroblast; human) [µM] | MIC50 [1, 3] [µM] | other results |
| --- | --- | --- | --- | --- |
| CONC(=O)COc1ccc(Oc2cnc3cc(Cl)ccc3n2)cc1 [NZ-274, 2-{4-[(6-chloroquinoxalin-2-yl)oxy]phenoxy}-N-methoxyacetamide] | ≥ 100 |  |  | inhibition at 10 µM ([1]; HCT-8, read-out: % inh @ (μM)): 1.5%; concentrations at which not toxic, human fibroblast cytotoxicity testing (human fibroblast): ≥ 100 µM |
| CONC(=O)[C@@H](C)Oc1ccc(Oc2cnc3cc(Cl)ccc3n2)cc1 [NZ-295, (2R)-2-{4-[(6-chloroquinoxalin-2-yl)oxy]phenoxy}-N-methoxypropanamide] | ≥ 100 | ≥ 100 |  | inhibition at 10 µM [1, 2]: 61% |
| CONC(=O)C(C)c1ccc(Oc2cnc3cc(Cl)ccc3n2)cc1 (centres unmarked) [NZ-310, 2-{4-[(6-chloroquinoxalin-2-yl)oxy]phenyl}-N-methoxypropanamide] | ≥ 100 | ≥ 100 |  | inhibition at 10 µM [1, 2]: 83% |
| CC(C)NC(=O)Nc1ccc(Oc2nc3ccc(Cl)cc3s2)cc1 [NZ-331, 1-{4-[(6-chloro-1,3-benzothiazol-2-yl)oxy]phenyl}-3-(propan-2-yl)urea] | ≥ 100 |  |  | inhibition at 0.05 µM ([1]; HCT-8, read-out: % inh @ (μM)): 36%; concentrations at which not toxic, human fibroblast cytotoxicity testing (human fibroblast): ≥ 100 µM |
| CC(C)NC(=O)Nc1ccc(Oc2nc3ccc(F)cc3s2)cc1 [NZ-332, 1-{4-[(6-fluoro-1,3-benzothiazol-2-yl)oxy]phenyl}-3-(propan-2-yl)urea] | ≥ 100 |  |  | MIC50 [1]: ~2.5 µM (≈ 0.863 µg/mL); concentrations at which not toxic, human fibroblast cytotoxicity testing (human fibroblast): ≥ 100 µM |
| CC(C(=O)N(C)C)c1ccc(Oc2nc3ccc(Cl)cc3s2)cc1 (centres unmarked) [NZ-368, 2-{4-[(6-chloro-1,3-benzothiazol-2-yl)oxy]phenyl}-N,N-dimethylpropanamide] | 25 to 50 | ≥ 100 | < 0.125 |  |
| CC(C(=O)NC(CO)CO)c1ccc(Oc2nc3ccc(Cl)cc3s2)cc1 (centres unmarked) [NZ-371, 2-{4-[(6-chloro-1,3-benzothiazol-2-yl)oxy]phenyl}-N-(1,3-dihydroxypropan-2-yl)propanamide] | ≥ 100 | ≥ 100 | 0.15 to 0.23 (≈ 0.061 to 0.0936 µg/mL) |  |
| CNC(=O)C(C)c1ccc(Oc2nc3ccc(F)cc3s2)cc1 (centres unmarked) [NZ-386, 2-{4-[(6-fluoro-1,3-benzothiazol-2-yl)oxy]phenyl}-N-methylpropanamide] | ≥ 100 | ≥ 100 | 0.05 to 0.3 (≈ 0.0165 to 0.0991 µg/mL) |  |
| CNC(=O)C(C)c1ccc(Oc2nc3cc(F)c(F)cc3s2)cc1 (centres unmarked) [NZ-387, 2-{4-[(5,6-difluoro-1,3-benzothiazol-2-yl)oxy]phenyl}-N-methylpropanamide] | ≥ 100 | ≥ 100 | ~0.44 (≈ 0.153 µg/mL) |  |
| CNC(=O)Cc1ccc(Oc2nc3ccc(Cl)cc3s2)cc1O [NZ-389, 2-{4-[(6-chloro-1,3-benzothiazol-2-yl)oxy]-2-hydroxyphenyl}-N-methylacetamide] | ≥ 100 | ≥ 100 | ~1.1 (≈ 0.384 µg/mL) |  |
| CNC(=O)Cc1ccc(Oc2nc3ccc(F)cc3s2)cc1O [NZ-395, 2-{4-[(6-fluoro-1,3-benzothiazol-2-yl)oxy]-2-hydroxyphenyl}-N-methylacetamide] | ≥ 100 | ≥ 100 | ~5 (≈ 1.66 µg/mL) |  |
| COC(=O)Cc1ccc(Oc2nc3cc(F)c(F)cc3s2)cc1 [NZ-398, methyl 2-{4-[(5,6-difluoro-1,3-benzothiazol-2-yl)oxy]phenyl}acetate] | ≥ 100 |  |  | MIC50 [1]: ~10 µM; inhibition at 10 µM ([1]; HCT-8, read-out: % inh @ (μM)): 50%; concentrations at which not toxic, human fibroblast cytotoxicity testing (human fibroblast): ≥ 100 µM |
| CNC(=O)Cc1ccc(Oc2nc3cc(F)c(F)cc3s2)cc1 [NZ-400, 2-{4-[(5,6-difluoro-1,3-benzothiazol-2-yl)oxy]phenyl}-N-methylacetamide] | ≥ 100 |  |  | MIC50 [1]: ~10 µM (≈ 3.34 µg/mL); inhibition at 10 µM ([1]; HCT-8, read-out: % inh @ (μM)): 67%; concentrations at which not toxic, human fibroblast cytotoxicity testing (human fibroblast): ≥ 100 µM |
| CNC(=O)Cc1ccc(Oc2nc3cc(F)c(F)cc3s2)cc1O [NZ-401, 2-{4-[(5,6-difluoro-1,3-benzothiazol-2-yl)oxy]-2-hydroxyphenyl}-N-methylacetamide] | ≥ 100 |  |  | inhibition at 4 µM ([1]; HCT-8, read-out: % inh @ (μM)): 3%; concentrations at which not toxic, human fibroblast cytotoxicity testing (human fibroblast): ≥ 100 µM |
| CC(C)NC(=O)Cc1ccc(Oc2nc3cc(F)c(F)cc3s2)cc1 [NZ-403, 2-{4-[(5,6-difluoro-1,3-benzothiazol-2-yl)oxy]phenyl)-N-(propan-2-yl)acetamide] | ≥ 100 | ≥ 100 | ~10 (≈ 3.62 µg/mL) | inhibition at 10 µM [1, 2]: 63% |
| CN1CCN(C(=O)Cc2ccc(Oc3nc4cc(F)c(F)cc4s3)cc2)CC1 [NZ-409, 2-{4-[(5,6-difluoro-1,3-benzothiazol-2-yl)oxy]phenyl}-1-(4-methylpiperazin-1-yl)ethan-1-one] | ≥ 100 | ≥ 100 | ~0.44 (≈ 0.178 µg/mL) |  |
| CNC(=O)Cc1ccc(Oc2nc3ccc(F)cc3s2)cc1F [NZ-410, 2-{2-fluoro-4-[(6-fluoro-1,3-benzothiazol-2-yl)oxy]phenyl}-N-methylacetamide] | ≥ 100 |  |  | MIC50 [1]: 2 to 10 µM (≈ 0.669 to 3.34 µg/mL); inhibition at 10 µM ([1]; HCT-8, read-out: % inh @ (μM)): 94%; concentrations at which not toxic, human fibroblast cytotoxicity testing (human fibroblast): ≥ 100 µM |
| O=C(NC1COC1)C1(c2ccc(Oc3nc4ccc(Cl)cc4s3)cc2)CC1 [NZ-564, 1-{4-[(6-chloro-1,3-benzothiazol-2-yl)oxy]phenyl}-N-(oxetan-3-yl)cyclopropane-1-carboxamide] |  |  | 0.054 (≈ 0.0216 µg/mL) |  |
| O=C(Nc1ccc(Oc2nc3ccc(Cl)cc3s2)cc1)N1CCOCC1 [NZ-572, N-{4-[(6-chloro-1,3-benzothiazol-2-yl)oxy]phenyl}morpholine-4-carboxamide] |  |  | ~0.5 (≈ 0.195 µg/mL) |  |
| O=C(Nc1ccc(Oc2nc3ccc(Cl)cc3s2)cc1)N1CCS(=O)(=O)CC1 [NZ-573, N-{4-[(6-chloro-1,3-benzothiazol-2-yl)oxy]phenyl}-1,1-dioxo-1λ^6,4-thiomorpholine-4-carboxamide] |  |  | ~0.5 (≈ 0.219 µg/mL) |  |
| O=C(Nc1ccc(Oc2nc3ccc(Cl)cc3s2)cc1)NC1COC1 [NZ-574, 1-{4-[(6-chloro-1,3-benzothiazol-2-yl)oxy]phenyl}-3-(oxetan-3-yl)urea] |  |  | ~1 (≈ 0.376 µg/mL) |  |
| O=C(Cc1ccc(Oc2nc3ccc(Cl)cc3s2)cc1)N1CCOCC1 [NZ-575, 2-{4-[(6-chloro-1,3-benzothiazol-2-yl)oxy]phenyl}-1-(morpholin-4-yl)ethan-1-one] |  |  | ~1 (≈ 0.389 µg/mL) |  |
| O=C(Cc1ccc(Oc2nc3ccc(Cl)cc3s2)cc1)N1CCS(=O)(=O)CC1 [NZ-576, 4-(2-{4-[(6-chloro-1,3-benzothiazol-2-yl)oxy]phenyl}acetyl)-1λ^6,4-thiomorpholine-1,1-dione] |  |  | ~0.03 (≈ 0.0131 µg/mL) |  |
| O=C(Cc1ccc(Oc2nc3ccc(Cl)cc3s2)cc1)NC1COC1 [NZ-577, 2-{4-[(6-chloro-1,3-benzothiazol-2-yl)oxy]phenyl}-N-(oxetan-3-yl)acetamide] |  |  | ~0.25 (≈ 0.0937 µg/mL) |  |
